# Patent US20020183518A1, “Modulators of proteins with phosphotyrosine recognition units” (ONTOGEN CORPORATION, priority 1995, published 2002)
# How the values were obtained:
# CD45 = biological target: T1, CD45 (Homo sapiens, UniProt P08575); experiment: In vitro PTPase inhibition assay (pNPP, colorimetric), CD45; assay type: biochemical; details: Table 9; read-out: IC50 values against CD45
# T1 construct: The PCR reaction product (2127 bp) was digested with Sma I (New England Biolabs, Beverly Mass.) to yield a 2110 bp product; made in house; host or cells: E. coli DH5α, plasmid pET24C-CD45
# T1 sequence (P08575 599-1306 limits assumed): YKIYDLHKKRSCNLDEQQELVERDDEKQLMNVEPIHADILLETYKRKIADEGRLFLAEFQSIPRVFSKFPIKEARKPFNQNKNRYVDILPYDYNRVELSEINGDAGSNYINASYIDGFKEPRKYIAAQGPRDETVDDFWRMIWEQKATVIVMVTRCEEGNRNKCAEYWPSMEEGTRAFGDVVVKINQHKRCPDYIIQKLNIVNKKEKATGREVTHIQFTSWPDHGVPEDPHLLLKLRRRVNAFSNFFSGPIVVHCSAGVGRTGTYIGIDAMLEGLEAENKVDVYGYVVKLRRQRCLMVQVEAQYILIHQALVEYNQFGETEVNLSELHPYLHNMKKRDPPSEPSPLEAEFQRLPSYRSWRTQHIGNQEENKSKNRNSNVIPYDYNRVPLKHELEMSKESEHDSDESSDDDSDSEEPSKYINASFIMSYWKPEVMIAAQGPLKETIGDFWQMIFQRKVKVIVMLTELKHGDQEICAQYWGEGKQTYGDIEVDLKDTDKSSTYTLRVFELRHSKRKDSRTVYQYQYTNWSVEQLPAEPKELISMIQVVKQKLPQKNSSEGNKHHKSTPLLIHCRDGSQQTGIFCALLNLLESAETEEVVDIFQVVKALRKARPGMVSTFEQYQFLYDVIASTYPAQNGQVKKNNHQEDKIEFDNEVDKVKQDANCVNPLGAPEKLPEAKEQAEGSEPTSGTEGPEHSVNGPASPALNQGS
# Procedure: CD45 enzymatic activity of samples was assayed in microtiter plates as follows. […] Louis Mo.), and 80 ul of activity assay buffer (100 mM sodium acetate, pH 6.0, 1 mM EDTA, 0.1% Triton X-100, 15 mM bME). Reactions were mixed gently and incubated at 37° C. for 60 minutes. […] To determine the enzymatic activity, absorbance readings of the reactions were measured at 405 nm using a Molecular Devices Thermomax Plate Reader (Menlo Park Calif.). […] Purified phosphatase was added to the reaction mixtures to begin the reactions; the reactions were incubated at 37° C. for 60 min. […] (for PTP-1C and PTPα assays), stopped, and colorimetrically analyzed as described above. […] First, absorbance readings from the negative control reactions were treated as a baseline and subtracted from the absorbance readings of the experimental reactions. Then, for each reaction, a percent inhibition was calculated using the following formula: […] For each inhibitor compound tested, an IC50 concentration was calculated from a best-fit computer analysis of the calculated percent inhibition for the various dilutions of the compound. CD45 enzymatic activity of samples was assayed in microtiter plates as follows. […] Louis Mo.), and 80 ul of activity assay buffer (100 mM sodium acetate, pH 6.0, 1 mM EDTA, 0. 1% Triton X-100, 15 mM bME). Reactions were mixed gently and incubated at 37° C. for 60 minutes. […] To determine the enzymatic activity, absorbance readings of the reactions were measured at 405 nm using a Molecular Devices Thermomax Plate Reader (Menlo Park Calif.). […] Purified phosphatase was added to the reaction mixtures to begin the reactions; the reactions were incubated at 37° C. for 60 min. […] (for PTP-1C and PTPα assays), stopped, and calorimetrically analyzed as described above. […] First, absorbance readings from the negative control reactions were treated as a baseline and subtracted from the absorbance readings of the experimental reactions. Then, for each reaction, a percent inhibition was calculated using the following formula: […] For each inhibitor compound tested, an IC50 concentration was calculated from a best-fit computer analysis of the calculated percent inhibition for the various dilutions of the compound.
# PTP-1B = biological target: T2, PTP-1B (Homo sapiens, UniProt P18031); experiment: In vitro PTPase inhibition assay (pNPP, colorimetric), PTP-1B; assay type: biochemical; details: Table 9; read-out: IC50 values against PTP1B
# T2 construct: known to encode a 321 amino acid fragment containing the PTP-1B catalytic domain and having PTPase activity; made in house; host or cells: E. coli DH5α, plasmid pGEX-3X-PTP-1B
# T2 sequence (P18031 3-277 limits assumed): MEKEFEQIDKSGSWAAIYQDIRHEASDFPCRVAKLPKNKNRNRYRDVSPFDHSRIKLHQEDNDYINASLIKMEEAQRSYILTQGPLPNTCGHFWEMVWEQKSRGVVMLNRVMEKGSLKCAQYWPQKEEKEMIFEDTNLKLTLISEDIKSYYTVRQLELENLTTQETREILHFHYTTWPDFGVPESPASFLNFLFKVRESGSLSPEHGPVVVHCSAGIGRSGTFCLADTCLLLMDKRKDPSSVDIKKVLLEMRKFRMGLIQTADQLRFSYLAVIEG
# Procedure: PTP-1B enzymatic activity of samples was assayed in microtiter plates as follows. The protein concentration of the PTP-1B enzyme preparation was determined using the Bio-Rad Protein Assay kit (Bio-Rad, Hercules Calif.). […] Reactions were mixed gently and incubated at 37° C. for 60 minutes. Enzymatic cleavage of phosphate from pNPP (a tyrosine phosphate analog) is marked by a colorimetric change in this substrate. See, e.g., Imbert et al., Biochem J., 297:163-173 (1994); Ghosh and Miller, Biochem. Biophys. Res. […] Zanke et al., Eur. J. […] To determine the enzymatic activity, absorbance readings of the reactions were measured at 405 nm using a Molecular Devices Thermomax Plate Reader (Menlo Park Calif.). […] Purified phosphatase was added to the reaction mixtures to begin the reactions; the reactions were incubated at 37° C. for 60 min. […] (for PTP-1C and PTPα assays), stopped, and colorimetrically analyzed as described above. […] First, absorbance readings from the negative control reactions were treated as a baseline and subtracted from the absorbance readings of the experimental reactions. Then, for each reaction, a percent inhibition was calculated using the following formula: […] For each inhibitor compound tested, an IC50 concentration was calculated from a best-fit computer analysis of the calculated percent inhibition for the various dilutions of the compound. PTP-1B enzymatic activity of samples was assayed in microtiter plates as follows. The protein concentration of the PTP-1B enzyme preparation was determined using the Bio-Rad Protein Assay kit (Bio-Rad, Hercules Calif.). […] Reactions were mixed gently and incubated at 37° C. for 60 minutes. Enzymatic cleavage of phosphate from pNPP (a tyrosine phosphate analog) is marked by a colorimetric change in this substrate. See, e.g., Imbert et al., Biochem J., 297:163-173 (1994); Ghosh and Miller, Biochem. Biophys. Res. […] Zanke et al., Eur. […] To determine the enzymatic activity, absorbance readings of the reactions were measured at 405 nm using a Molecular Devices Thermomax Plate Reader (Menlo Park Calif.). […] Purified phosphatase was added to the reaction mixtures to begin the reactions; the reactions were incubated at 37° C. for 60 min. […] (for PTP-1C and PTPα assays), stopped, and calorimetrically analyzed as described above. […] First, absorbance readings from the negative control reactions were treated as a baseline and subtracted from the absorbance readings of the experimental reactions. Then, for each reaction, a percent inhibition was calculated using the following formula: […] For each inhibitor compound tested, an IC50 concentration was calculated from a best-fit computer analysis of the calculated percent inhibition for the various dilutions of the compound.
Compound,IC50 (CD45) [nM],IC50 (PTP-1B) [nM]
O=C(O)/C=C/c1ccc(-c2nc(-c3cc(F)ccc3F)[nH]c2-c2ccc(/C=C/C(=O)O)cc2)cc1 [Compound 76],930,680
CCCCCc1nc(-c2ccc(/C=C/C(=O)O)cc2)c(-c2ccc(/C=C/C(=O)O)cc2)[nH]1 [Compound 77],7500,780
O=C(O)/C=C/c1ccc(-c2nc(-c3ccccc3F)[nH]c2-c2ccc(/C=C/C(=O)O)cc2)cc1 [Compound 78],1150,790
O=C(O)/C=C/c1ccc(-c2nc(/C=C/c3ccccc3)[nH]c2-c2ccc(/C=C/C(=O)O)cc2)cc1 [Compound 79],8200,4800
O=C(O)/C=C/c1ccc(-c2nc(-c3ccc4ccc5cccc6ccc3c4c56)[nH]c2-c2ccc(/C=C/C(=O)O)cc2)cc1 [Compound 80],20000,10000
O=C(O)/C=C/c1ccc(-c2nc(-c3cc4ccccc4c4ccccc34)[nH]c2-c2ccc(/C=C/C(=O)O)cc2)cc1 [Compound 81],19000,26000
O=C(O)/C=C/c1ccc(-c2nc(-c3cc(Cl)cc(Cl)c3Cl)[nH]c2-c2ccc(/C=C/C(=O)O)cc2)cc1 [Compound 82],12800,11900
COc1ccc(-c2nc(-c3ccc(/C=C/C(=O)O)cc3)c(-c3ccc(/C=C/C(=O)O)cc3)[nH]2)cc1F [Compound 83],1500,1300
O=C(O)/C=C/c1ccc(-c2nc(-c3c(F)c(F)c(F)c(F)c3F)[nH]c2-c2ccc(/C=C/C(=O)O)cc2)cc1 [Compound 84],2700,1200
O=C(O)/C=C/c1ccc(-c2nc(-c3ccc4c(c3)OCO4)[nH]c2-c2ccc(/C=C/C(=O)O)cc2)cc1 [Compound 85],1800,1500
COc1ccc(-c2nc(-c3ccc(/C=C/C(=O)O)cc3)c(-c3ccc(/C=C/C(=O)O)cc3)[nH]2)c(C)c1C [Compound 86],7100,1800
O=C(O)/C=C/c1ccc(-c2nc(-c3ccc(OCc4ccccc4)cc3)[nH]c2-c2ccc(/C=C/C(=O)O)cc2)cc1 [Compound 87],1100,1000
O=C(O)/C=C/c1ccc(-c2nc(-c3ccc4c(c3)CCC4)[nH]c2-c2ccc(/C=C/C(=O)O)cc2)cc1 [Compound 89],> 100000,13700
CC(=O)Nc1ccc(-c2nc(-c3ccc(/C=C/C(=O)O)cc3)c(-c3ccc(/C=C/C(=O)O)cc3)[nH]2)cc1 [Compound 90],1120,860
COc1ccc(-c2nc(-c3cc(/C=C/C(=O)O)ccc3O)c(-c3cc(/C=C/C(=O)O)ccc3O)[nH]2)cc1 [Compound 91],> 100000,25900
CCCCn1cnc(-c2ccc(/C=C/C(=O)O)cc2)c1-c1ccc(/C=C/C(=O)O)cc1 [Compound 94],7000,700
O=C(O)/C=C/c1ccc(-c2ncn(-c3ccccc3)c2-c2ccc(/C=C/C(=O)O)cc2)cc1 [Compound 99],7400,1500
O=C(O)/C=C/c1ccc(-c2[nH]cnc2C(=O)OCc2ccccc2)cc1 [Compound 134],20000,3400
O=C(O)/C=C/c1ccc(-c2nc(C(=O)OCc3ccccc3)c(-c3ccc(/C=C/C(=O)O)cc3)[nH]2)cc1 [Compound 136],8000,700
O=C(O)/C=C/c1ccc(-c2nc3ccc([N+](=O)[O-])cc3nc2-c2ccc(/C=C/C(=O)O)cc2)cc1 [Compound 152],1200,850
O=C(O)/C=C/c1ccc(-c2nc3cc(Cl)c(Cl)cc3nc2-c2ccc(/C=C/C(=O)O)cc2)cc1 [Compound 153],1910,2650
Cc1ccc2nc(-c3ccc(/C=C/C(=O)O)cc3)c(-c3ccc(/C=C/C(=O)O)cc3)nc2c1 [Compound 154],2450,3830
O=C(O)/C=C/c1ccc(-c2nc3ccc(C(=O)O)cc3nc2-c2ccc(/C=C/C(=O)O)cc2)cc1 [Compound 155],1300,1000
COC(=O)c1ccc2nc(-c3ccc(/C=C/C(=O)O)cc3)c(-c3ccc(/C=C/C(=O)O)cc3)nc2c1 [Compound 156],1300,1700
O=C(O)/C=C/c1ccc(-c2nc3ccccc3nc2-c2ccc(/C=C/C(=O)O)cc2)cc1 [Compound 157],1500,5500
O=C(O)/C=C/c1ccc(-c2nc3cccnc3nc2-c2ccc(/C=C/C(=O)O)cc2)cc1 [Compound 160],1520,980
